Data published in ChEMBL document CHEMBL3621157, “Design, synthesis and biological evaluation of novel 1,2,4-triazolo and 1,2,4-triazino[4,3-a]quinoxalines as potential anticancer and antimicrobial agents” (2015).
In brackets after ≈: the same amount, converted by molar mass.

What was measured:
Type in all cases: functional
Staphylococcus aureus [1] = experiment: Antimicrobial activity against Staphylococcus aureus DSM 1104 incubated at 37 degC for 24 hrs by cup diffusion method
Pseudomonas aeruginosa [2] = experiment: Antimicrobial activity against Pseudomonas aeruginosa ATCC 10145 incubated at 37 degC for 24 hrs by cup diffusion method
Candida albicans = experiment: Antimicrobial activity against Candida albicans DSM 70014 incubated at 37 degC for 48 hrs by cup diffusion method
Staphylococcus aureus [3] = experiment: Antimicrobial activity against Staphylococcus aureus DSM 1104 incubated for 24 hrs by two-fold serial broth dilution method; settings: DSM 1104, 24 h
Bacillus subtilis [4] = experiment: Antimicrobial activity against Bacillus subtilis ATCC 6633 incubated for 24 hrs by two-fold serial broth dilution method; settings: ATCC 6633, 24 h
Bacillus subtilis [5] = experiment: Antimicrobial activity against Bacillus subtilis ATCC 6633 incubated for 24 hrs followed by transfer of colonies to Muller-Hinton agar plate and measured after 18 hrs by two-fold serial broth dilution method
Pseudomonas aeruginosa [6] = experiment: Antimicrobial activity against Pseudomonas aeruginosa ATCC 10145 incubated for 24 hrs by two-fold serial broth dilution method; settings: ATCC 10145, 24 h
Escherichia coli = experiment: Antimicrobial activity against Escherichia coli ATCC 11775 incubated for 24 hrs followed by transfer of colonies to Muller-Hinton agar plate and measured after 18 hrs by two-fold serial broth dilution method
[7] = Growth inhibition of human HOP92 cells at 10 uM incubated for 48 hrs by sulforhodamine B assay; settings: HOP-92, 48 h, read-out: GI
K562 = experiment: Growth inhibition of human K562 cells at 10 uM incubated for 48 hrs by sulforhodamine B assay; settings: K562, 48 h, read-out: GI
[8] = Growth inhibition of human MOLT4 cells at 10 uM incubated for 48 hrs by sulforhodamine B assay; settings: MOLT-4, 48 h, read-out: GI
[9] = Growth inhibition of human RPMI8226 cells at 10 uM incubated for 48 hrs by sulforhodamine B assay; settings: RPMI-8226, 48 h, read-out: GI
NCI-H460 = experiment: Growth inhibition of human NCI-H460 cells at 10 uM incubated for 48 hrs by sulforhodamine B assay; settings: NCI-H460, 48 h, read-out: GI
HCT-116 [10] = experiment: Growth inhibition of human HCT116 cells at 10 uM incubated for 48 hrs by sulforhodamine B assay; settings: HCT-116, 48 h, read-out: GI
HCT-15 = experiment: Growth inhibition of human HCT15 cells at 10 uM incubated for 48 hrs by sulforhodamine B assay; settings: HCT-15, 48 h, read-out: GI
KM12 [11] = experiment: Growth inhibition of human KM12 cells at 10 uM incubated for 48 hrs by sulforhodamine B assay; settings: KM12, 48 h, read-out: GI
A498 [12] = experiment: Growth inhibition of human A498 cells at 10 uM incubated for 48 hrs by sulforhodamine B assay; settings: A498, 48 h, read-out: GI
HL-60(TB) = experiment: Growth inhibition of human HL-60(TB) cells incubated for 48 hrs by sulforhodamine B assay; settings: HL-60, 48 h
SR = experiment: Growth inhibition of human SR cells incubated for 48 hrs by sulforhodamine B assay
A549 = experiment: Growth inhibition of human A549 cells incubated for 48 hrs by sulforhodamine B assay; settings: A549, 48 h
[13] = Growth inhibition of human EKVX cells incubated for 48 hrs by sulforhodamine B assay
HOP-62 = experiment: Growth inhibition of human HOP62 cells incubated for 48 hrs by sulforhodamine B assay; settings: HOP-62, 48 h
NCI-H226 = experiment: Growth inhibition of human NCI-H226 cells incubated for 48 hrs by sulforhodamine B assay; settings: NCI-H226, 48 h
NCI-H322M = experiment: Growth inhibition of human NCI-H322M cells incubated for 48 hrs by sulforhodamine B assay
[14] = Growth inhibition of human HCC2998 cells incubated for 48 hrs by sulforhodamine B assay; settings: HCC 2998, 48 h
HCT-116 [15] = experiment: Growth inhibition of human HCT116 cells incubated for 48 hrs by sulforhodamine B assay; settings: HCT-116, 48 h
KM12 [16] = experiment: Growth inhibition of human KM12 cells incubated for 48 hrs by sulforhodamine B assay; settings: KM12, 48 h
[17] = Growth inhibition of human SF295 cells incubated for 48 hrs by sulforhodamine B assay; settings: SF-295, 48 h
SNB-19 = experiment: Growth inhibition of human SNB19 cells incubated for 48 hrs by sulforhodamine B assay; settings: SNB-19, 48 h
Malme-3M = experiment: Growth inhibition of human MALME-3M cells incubated for 48 hrs by sulforhodamine B assay
M14 = experiment: Growth inhibition of human M14 cells incubated for 48 hrs by sulforhodamine B assay; settings: M14, 48 h
SK-MEL-5 = experiment: Growth inhibition of human SK-MEL-5 cells incubated for 48 hrs by sulforhodamine B assay; settings: SK-MEL-5, 48 h
UACC-62 = experiment: Growth inhibition of human UACC62 cells incubated for 48 hrs by sulforhodamine B assay; settings: UACC-62, 48 h
OVCAR-3 = experiment: Growth inhibition of human OVCAR3 cells incubated for 48 hrs by sulforhodamine B assay; settings: OVCAR-3, 48 h
OVCAR-4 = experiment: Growth inhibition of human OVCAR4 cells incubated for 48 hrs by sulforhodamine B assay; settings: OVCAR-4, 48 h
[18] = Growth inhibition of human NCI-ADR-RES cells incubated for 48 hrs by sulforhodamine B assay
A498 [19] = experiment: Growth inhibition of human A498 cells incubated for 48 hrs by sulforhodamine B assay; settings: A498, 48 h
ACHN = experiment: Growth inhibition of human ACHN cells incubated for 48 hrs by sulforhodamine B assay
TK-10 = experiment: Growth inhibition of human TK10 cells incubated for 48 hrs by sulforhodamine B assay; settings: TK-10, 48 h

For `Clc1ccccc1-c1nnc2c(Cc3ccccc3)nc3ccccc3n12`, the “inhibition zone (IZ)” value (Staphylococcus aureus [1]) was 12 mm, the “inhibition zone (IZ)” value (Pseudomonas aeruginosa [2]) was 14 mm and the “inhibition zone (IZ)” value (Candida albicans) was 16 mm. It also gave an MIC (Staphylococcus aureus [3]) of 100 µg/mL (≈ 270 µM), an MIC (Bacillus subtilis [4]) of 25 µg/mL (≈ 67.4 µM) and an MBC (Bacillus subtilis [5]) of 50 µg/mL (≈ 135 µM). For the same molecule, the MIC (Pseudomonas aeruginosa [6]) was 50 µg/mL (≈ 135 µM), the MBC (Escherichia coli) was 50 µg/mL (≈ 135 µM) and the inhibition of growth at 10 µM [7] was 50.1%. It also gave an inhibition of growth at 10 µM (K562) of 78.6%, an inhibition of growth at 10 µM [8] of 60.4% and an inhibition of growth at 10 µM [9] of 63.8%. It also gave an inhibition of growth at 10 µM (NCI-H460) of 84.4%, an inhibition of growth at 10 µM (HCT-116 [10]) of 65.9% and an inhibition of growth at 10 µM (HCT-15) of 55.4%. It also gave an inhibition of growth at 10 µM (KM12 [11]) of 51.1%, an inhibition of growth at 10 µM (A498 [12]) of 61.1% and a GI50 (HL-60(TB)) of 32.5 µM. For the same molecule, the GI50 (SR) was 3.91 µM, the GI50 (A549) was 8.77 µM and the GI50 [13] was 5.96 µM. The GI50 (HOP-62) was 12.4 µM, the GI50 (NCI-H226) was 9.96 µM and the GI50 (NCI-H322M) was 53.9 µM. For the same molecule, the GI50 [14] was 42.8 µM, the GI50 (HCT-116 [15]) was 3.21 µM and the GI50 (KM12 [16]) was 9.48 µM. The GI50 [17] was 12.3 µM, the GI50 (SNB-19) was 27.8 µM and the GI50 (Malme-3M) was 23.8 µM. For the same molecule, the GI50 (M14) was 36.7 µM, the GI50 (SK-MEL-5) was 5.9 µM and the GI50 (UACC-62) was 7.96 µM. The GI50 (OVCAR-3) was 21.7 µM, the GI50 (OVCAR-4) was 8.01 µM and the GI50 [18] was 7.04 µM. It also gave a GI50 (A498 [19]) of 1.8 µM, a GI50 (ACHN) of 34.1 µM and a GI50 (TK-10) of 37.4 µM.
